Results reported in ChEMBL document CHEMBL4118189, “Discovery of novel N-hydroxy-2-arylisoindoline-4-carboxamides as potent and selective inhibitors of HDAC11” (Bioorg Med Chem Lett, 2018).
In brackets after ≈: the same amount, converted by molar mass.

Tests used:
Histone deacetylase 11 [1] = target: T1, Histone deacetylase 11 (Homo sapiens, UniProt Q96DB2); test: Inhibition of full length recombinant human HDAC11 expressed in baculoviral expression system using FAM-RHKK as substrate by electrophoretic mobility shift assay
T1 sequence (Q96DB2 whole entry): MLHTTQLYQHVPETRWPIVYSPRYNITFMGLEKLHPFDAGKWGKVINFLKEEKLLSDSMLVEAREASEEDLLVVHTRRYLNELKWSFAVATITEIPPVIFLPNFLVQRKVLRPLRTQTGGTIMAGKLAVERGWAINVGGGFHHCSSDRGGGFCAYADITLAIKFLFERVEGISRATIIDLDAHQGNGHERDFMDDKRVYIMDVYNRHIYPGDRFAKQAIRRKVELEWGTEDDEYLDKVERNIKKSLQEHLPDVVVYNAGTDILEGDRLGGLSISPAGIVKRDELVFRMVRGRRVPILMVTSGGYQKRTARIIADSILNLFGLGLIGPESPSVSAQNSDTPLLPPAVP

[2] = Intrinsic clearance in mouse liver microsomes; format: ADME, microsome; conditions: read-out: CLH
[3] = target: T2, Protein deacetylase HDAC6 (Homo sapiens, UniProt Q9UBN7); test: Inhibition of full length recombinant human HDAC6 using fluorescent-labeled peptide as substrate by electrophoretic mobility shift assay
T2 sequence (Q9UBN7 whole entry): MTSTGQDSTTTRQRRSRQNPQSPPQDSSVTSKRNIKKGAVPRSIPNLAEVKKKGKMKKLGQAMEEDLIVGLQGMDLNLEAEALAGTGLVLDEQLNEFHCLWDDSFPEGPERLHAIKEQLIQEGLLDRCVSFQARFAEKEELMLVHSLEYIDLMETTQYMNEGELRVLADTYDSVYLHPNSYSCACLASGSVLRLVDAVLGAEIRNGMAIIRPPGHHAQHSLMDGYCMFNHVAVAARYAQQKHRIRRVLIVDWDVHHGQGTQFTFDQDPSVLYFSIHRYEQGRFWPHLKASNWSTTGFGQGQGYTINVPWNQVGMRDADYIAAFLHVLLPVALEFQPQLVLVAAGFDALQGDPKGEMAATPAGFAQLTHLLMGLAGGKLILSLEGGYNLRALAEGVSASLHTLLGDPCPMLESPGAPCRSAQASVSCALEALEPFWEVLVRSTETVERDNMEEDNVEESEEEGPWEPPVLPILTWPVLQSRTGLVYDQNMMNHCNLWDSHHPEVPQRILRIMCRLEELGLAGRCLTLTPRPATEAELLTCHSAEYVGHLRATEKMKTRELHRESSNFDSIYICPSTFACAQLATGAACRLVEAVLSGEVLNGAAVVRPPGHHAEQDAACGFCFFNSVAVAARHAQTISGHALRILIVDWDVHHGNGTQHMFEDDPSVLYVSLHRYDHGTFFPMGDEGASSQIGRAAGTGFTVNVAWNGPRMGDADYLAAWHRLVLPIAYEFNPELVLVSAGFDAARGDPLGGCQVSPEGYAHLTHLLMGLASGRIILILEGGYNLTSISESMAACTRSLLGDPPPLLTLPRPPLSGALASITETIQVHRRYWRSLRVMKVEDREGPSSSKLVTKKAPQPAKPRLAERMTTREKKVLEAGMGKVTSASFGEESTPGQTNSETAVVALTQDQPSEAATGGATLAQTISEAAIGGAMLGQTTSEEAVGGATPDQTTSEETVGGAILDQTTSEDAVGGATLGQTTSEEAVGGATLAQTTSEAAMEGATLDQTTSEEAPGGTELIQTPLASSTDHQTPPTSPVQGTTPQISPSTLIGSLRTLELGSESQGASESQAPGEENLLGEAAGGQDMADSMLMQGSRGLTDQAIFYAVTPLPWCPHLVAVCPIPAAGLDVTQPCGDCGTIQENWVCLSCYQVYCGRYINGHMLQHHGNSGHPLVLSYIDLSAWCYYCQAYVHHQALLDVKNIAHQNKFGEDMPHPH

Histone deacetylase 11 [4] = target: T1, Histone deacetylase 11; test: Inhibition of NanoLuc-tagged HDAC11 (unknown origin) by BRET assay
[5] = Kinetic solubility of the compound at pH 7.4; format: physicochemical; conditions: buffer, read-out: Kinetic_solubility
Histone deacetylase 1 = Histone deacetylase 1 (Homo sapiens, UniProt Q13547); test: Inhibition of full length recombinant human HDAC1 using fluorescent-labeled peptide as substrate by electrophoretic mobility shift assay
Histone deacetylase 5 = Histone deacetylase 5 (Homo sapiens, UniProt Q9UQL6); test: Inhibition of full length recombinant human HDAC5 using fluorescent-labeled peptide as substrate by electrophoretic mobility shift assay
[6] = target: T3, Polyamine deacetylase HDAC10 (Homo sapiens, UniProt Q969S8); test: Inhibition of full length recombinant human HDAC10 using fluorescent-labeled peptide as substrate by electrophoretic mobility shift assay
T3 sequence (Q969S8 whole entry): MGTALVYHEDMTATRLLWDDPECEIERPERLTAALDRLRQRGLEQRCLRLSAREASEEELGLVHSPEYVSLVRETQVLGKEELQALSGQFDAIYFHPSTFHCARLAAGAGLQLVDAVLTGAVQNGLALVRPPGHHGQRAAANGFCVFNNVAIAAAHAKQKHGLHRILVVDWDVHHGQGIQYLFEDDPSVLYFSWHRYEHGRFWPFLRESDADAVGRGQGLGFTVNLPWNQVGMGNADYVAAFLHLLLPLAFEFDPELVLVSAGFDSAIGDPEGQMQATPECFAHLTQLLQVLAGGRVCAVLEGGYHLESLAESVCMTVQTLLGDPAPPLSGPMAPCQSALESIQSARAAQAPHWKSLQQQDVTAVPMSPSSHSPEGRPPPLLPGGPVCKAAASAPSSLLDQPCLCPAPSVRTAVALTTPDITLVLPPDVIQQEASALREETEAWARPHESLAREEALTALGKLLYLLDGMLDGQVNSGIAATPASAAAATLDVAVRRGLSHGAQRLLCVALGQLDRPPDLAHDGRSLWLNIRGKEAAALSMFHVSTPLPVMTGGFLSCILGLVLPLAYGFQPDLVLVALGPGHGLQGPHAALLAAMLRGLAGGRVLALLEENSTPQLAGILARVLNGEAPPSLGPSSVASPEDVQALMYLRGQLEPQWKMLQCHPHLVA

Histone deacetylase 7 = target: T4, Histone deacetylase 7 (Homo sapiens, UniProt Q8WUI4); test: Inhibition of full length recombinant human HDAC7 using fluorescent-labeled peptide as substrate by electrophoretic mobility shift assay
T4 sequence (Q8WUI4 whole entry): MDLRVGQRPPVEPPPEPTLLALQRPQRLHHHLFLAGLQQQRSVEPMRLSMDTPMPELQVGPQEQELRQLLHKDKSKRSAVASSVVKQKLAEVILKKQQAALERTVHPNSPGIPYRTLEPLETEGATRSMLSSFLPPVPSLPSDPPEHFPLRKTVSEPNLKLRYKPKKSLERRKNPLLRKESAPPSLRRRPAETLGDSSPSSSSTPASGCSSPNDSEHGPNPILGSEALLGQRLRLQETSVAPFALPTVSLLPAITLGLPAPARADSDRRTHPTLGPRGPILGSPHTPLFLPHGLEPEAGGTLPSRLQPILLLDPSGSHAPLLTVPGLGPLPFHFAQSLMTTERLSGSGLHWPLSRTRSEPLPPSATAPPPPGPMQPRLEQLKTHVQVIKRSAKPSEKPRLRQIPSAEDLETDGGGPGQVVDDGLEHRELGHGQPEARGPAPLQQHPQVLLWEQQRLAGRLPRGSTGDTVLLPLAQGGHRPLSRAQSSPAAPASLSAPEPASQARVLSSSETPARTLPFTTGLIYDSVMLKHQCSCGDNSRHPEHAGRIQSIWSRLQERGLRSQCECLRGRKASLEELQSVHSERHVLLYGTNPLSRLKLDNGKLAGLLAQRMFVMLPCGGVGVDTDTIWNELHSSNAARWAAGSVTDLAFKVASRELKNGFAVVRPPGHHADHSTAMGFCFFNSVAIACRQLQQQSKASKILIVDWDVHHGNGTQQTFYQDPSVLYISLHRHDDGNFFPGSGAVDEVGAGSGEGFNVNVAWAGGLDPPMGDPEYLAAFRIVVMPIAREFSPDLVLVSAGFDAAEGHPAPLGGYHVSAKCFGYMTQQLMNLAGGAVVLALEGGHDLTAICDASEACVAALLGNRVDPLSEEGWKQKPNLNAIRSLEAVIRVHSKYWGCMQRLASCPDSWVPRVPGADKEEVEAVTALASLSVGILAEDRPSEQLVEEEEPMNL

Histone deacetylase 3 = Histone deacetylase 3 (Homo sapiens, UniProt O15379); test: Inhibition of full length recombinant human HDAC3 using fluorescent-labeled peptide as substrate by electrophoretic mobility shift assay
Histone deacetylase 2 = Histone deacetylase 2 (Homo sapiens, UniProt Q92769); test: Inhibition of full length recombinant human HDAC2 using fluorescent-labeled peptide as substrate by electrophoretic mobility shift assay
[7] = Permeability of the compound by PAMPA; format: ADME; conditions: read-out: permeability
Histone deacetylase 9 = Histone deacetylase 9 (Homo sapiens, UniProt Q9UKV0); test: Inhibition of full length recombinant human HDAC9 using fluorescent-labeled peptide as substrate by electrophoretic mobility shift assay
[8] = Bioavailability in Balb/c nude mouse at 5 mg/kg, ip; format: ADME, organism-based; conditions: in vivo
[9] = Half life in Balb/c nude mouse at 5 mg/kg, ip; format: ADME, organism-based; conditions: in vivo
[10] = AUClast in Balb/c nude mouse at 5 mg/kg, ip; format: ADME, organism-based; parameters: dose 5 mg/kg, time 0 - last, route intraperitoneal; conditions: in vivo
[11] = Cmax in Balb/c nude mouse at 5 mg/kg, ip; format: ADME, organism-based; parameters: dose 5 mg/kg, route intraperitoneal; conditions: in vivo
[12] = AUClast in Balb/c nude mouse at 1 mg/kg, iv; format: ADME, organism-based; parameters: dose 1 mg/kg, time 0 - last, route intravenous; conditions: in vivo
[13] = Clearance in Balb/c nude mouse at 1 mg/kg, iv; format: ADME, organism-based; conditions: in vivo
[14] = Initial plasma concentration in Balb/c nude mouse at 1 mg/kg, iv; format: ADME, organism-based
[15] = Volume of distribution at steady state in Balb/c nude mouse at 1 mg/kg, iv; format: ADME, organism-based; conditions: in vivo, read-out: Vdss
[16] = Half life in Balb/c nude mouse at 1 mg/kg, iv; format: ADME, organism-based; conditions: in vivo

Histone deacetylase 2, sequence (Q92769 whole entry): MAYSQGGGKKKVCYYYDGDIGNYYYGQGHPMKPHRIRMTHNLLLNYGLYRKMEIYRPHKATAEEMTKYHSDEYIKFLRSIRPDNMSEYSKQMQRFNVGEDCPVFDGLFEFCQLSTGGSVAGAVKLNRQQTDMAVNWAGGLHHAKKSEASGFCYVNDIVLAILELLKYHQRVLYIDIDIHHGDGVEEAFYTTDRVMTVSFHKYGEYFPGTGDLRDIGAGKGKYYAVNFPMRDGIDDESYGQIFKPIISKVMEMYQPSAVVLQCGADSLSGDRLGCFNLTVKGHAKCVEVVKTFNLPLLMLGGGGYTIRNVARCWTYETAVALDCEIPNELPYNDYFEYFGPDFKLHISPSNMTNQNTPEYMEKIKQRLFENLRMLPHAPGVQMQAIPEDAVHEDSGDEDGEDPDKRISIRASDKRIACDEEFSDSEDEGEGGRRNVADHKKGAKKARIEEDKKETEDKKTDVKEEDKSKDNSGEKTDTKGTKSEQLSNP
Histone deacetylase 1, sequence (Q13547 whole entry): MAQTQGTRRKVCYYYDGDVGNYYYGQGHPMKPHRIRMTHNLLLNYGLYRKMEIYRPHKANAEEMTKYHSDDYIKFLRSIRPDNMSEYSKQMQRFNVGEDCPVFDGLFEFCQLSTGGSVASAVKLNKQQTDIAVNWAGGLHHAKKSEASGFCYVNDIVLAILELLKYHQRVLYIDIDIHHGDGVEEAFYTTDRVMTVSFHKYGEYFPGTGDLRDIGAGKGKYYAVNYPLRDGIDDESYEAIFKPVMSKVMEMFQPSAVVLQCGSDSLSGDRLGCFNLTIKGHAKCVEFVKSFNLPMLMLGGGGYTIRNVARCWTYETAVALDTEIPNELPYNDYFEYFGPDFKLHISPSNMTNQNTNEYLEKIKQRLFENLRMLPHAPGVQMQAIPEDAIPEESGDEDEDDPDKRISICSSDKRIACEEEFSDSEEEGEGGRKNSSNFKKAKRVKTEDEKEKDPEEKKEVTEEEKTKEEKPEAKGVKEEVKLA
Histone deacetylase 5, sequence (Q9UQL6 whole entry): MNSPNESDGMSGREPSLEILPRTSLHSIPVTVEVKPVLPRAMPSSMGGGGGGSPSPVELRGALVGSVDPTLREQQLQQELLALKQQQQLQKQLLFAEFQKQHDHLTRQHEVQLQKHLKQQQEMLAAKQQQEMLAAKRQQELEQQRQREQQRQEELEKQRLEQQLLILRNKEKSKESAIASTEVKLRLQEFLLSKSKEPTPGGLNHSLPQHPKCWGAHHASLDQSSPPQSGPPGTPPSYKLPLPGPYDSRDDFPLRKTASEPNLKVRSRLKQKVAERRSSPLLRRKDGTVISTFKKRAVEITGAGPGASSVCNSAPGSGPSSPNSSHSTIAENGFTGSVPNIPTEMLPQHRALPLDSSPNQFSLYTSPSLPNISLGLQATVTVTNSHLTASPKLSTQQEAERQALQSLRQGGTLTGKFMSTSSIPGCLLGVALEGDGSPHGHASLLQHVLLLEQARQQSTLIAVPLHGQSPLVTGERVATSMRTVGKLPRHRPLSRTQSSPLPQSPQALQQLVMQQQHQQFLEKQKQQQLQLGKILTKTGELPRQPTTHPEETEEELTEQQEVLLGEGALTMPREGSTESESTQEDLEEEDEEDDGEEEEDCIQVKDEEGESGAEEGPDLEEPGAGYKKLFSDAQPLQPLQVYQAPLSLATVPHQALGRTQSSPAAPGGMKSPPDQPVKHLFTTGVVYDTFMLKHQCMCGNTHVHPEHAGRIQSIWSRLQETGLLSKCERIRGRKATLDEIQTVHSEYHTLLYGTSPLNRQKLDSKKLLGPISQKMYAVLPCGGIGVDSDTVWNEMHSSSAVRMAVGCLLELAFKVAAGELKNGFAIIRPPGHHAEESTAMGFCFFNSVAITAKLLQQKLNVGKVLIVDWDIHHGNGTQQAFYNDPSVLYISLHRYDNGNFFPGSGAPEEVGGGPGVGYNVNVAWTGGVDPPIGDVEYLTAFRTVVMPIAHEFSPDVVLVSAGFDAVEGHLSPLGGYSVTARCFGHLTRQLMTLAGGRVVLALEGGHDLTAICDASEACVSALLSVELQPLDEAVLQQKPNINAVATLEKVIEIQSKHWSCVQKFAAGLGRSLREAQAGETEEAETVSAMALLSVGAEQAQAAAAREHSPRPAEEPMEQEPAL
Histone deacetylase 9, sequence (Q9UKV0 whole entry): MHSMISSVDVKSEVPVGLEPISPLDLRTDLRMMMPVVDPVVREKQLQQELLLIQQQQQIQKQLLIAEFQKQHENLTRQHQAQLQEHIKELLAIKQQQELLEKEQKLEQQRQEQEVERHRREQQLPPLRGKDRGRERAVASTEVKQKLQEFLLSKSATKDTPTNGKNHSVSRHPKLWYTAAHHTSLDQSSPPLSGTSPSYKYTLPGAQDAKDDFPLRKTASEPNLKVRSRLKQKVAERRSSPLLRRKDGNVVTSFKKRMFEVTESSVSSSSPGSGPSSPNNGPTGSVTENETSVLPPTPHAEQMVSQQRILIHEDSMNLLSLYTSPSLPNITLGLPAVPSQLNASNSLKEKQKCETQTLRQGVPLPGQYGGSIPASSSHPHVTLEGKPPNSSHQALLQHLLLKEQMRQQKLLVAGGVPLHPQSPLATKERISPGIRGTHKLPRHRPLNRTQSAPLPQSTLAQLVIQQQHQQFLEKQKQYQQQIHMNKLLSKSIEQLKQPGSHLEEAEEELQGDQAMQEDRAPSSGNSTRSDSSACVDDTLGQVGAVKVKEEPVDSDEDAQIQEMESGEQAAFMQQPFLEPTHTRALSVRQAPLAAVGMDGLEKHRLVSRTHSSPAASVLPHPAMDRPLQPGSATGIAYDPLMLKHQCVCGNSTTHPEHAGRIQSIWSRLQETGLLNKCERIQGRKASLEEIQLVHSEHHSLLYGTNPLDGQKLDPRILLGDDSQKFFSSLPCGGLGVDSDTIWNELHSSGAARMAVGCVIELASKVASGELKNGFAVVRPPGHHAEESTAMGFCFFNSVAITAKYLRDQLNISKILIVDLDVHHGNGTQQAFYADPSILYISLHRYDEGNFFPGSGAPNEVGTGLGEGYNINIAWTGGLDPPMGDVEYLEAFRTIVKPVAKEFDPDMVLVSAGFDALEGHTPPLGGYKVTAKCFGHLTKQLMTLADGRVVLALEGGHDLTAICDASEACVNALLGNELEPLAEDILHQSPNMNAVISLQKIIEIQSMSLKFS
Histone deacetylase 3, sequence (O15379 whole entry): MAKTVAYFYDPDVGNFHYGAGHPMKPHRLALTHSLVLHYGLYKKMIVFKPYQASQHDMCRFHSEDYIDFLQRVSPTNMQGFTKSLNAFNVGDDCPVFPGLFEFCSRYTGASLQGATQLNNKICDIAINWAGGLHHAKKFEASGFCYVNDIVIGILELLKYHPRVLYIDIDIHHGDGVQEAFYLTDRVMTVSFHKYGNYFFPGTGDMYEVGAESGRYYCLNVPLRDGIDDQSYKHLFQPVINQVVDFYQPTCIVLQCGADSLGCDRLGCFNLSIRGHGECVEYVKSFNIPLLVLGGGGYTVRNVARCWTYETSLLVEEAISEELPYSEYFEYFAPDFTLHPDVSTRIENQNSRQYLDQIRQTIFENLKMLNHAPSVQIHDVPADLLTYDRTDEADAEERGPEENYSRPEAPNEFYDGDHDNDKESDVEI

SMILES	IC50 (Histone deacetylase 11 [1]) [nM]	microsomal CLint [2] [µL/min/mg]	IC50 [3] [nM]	solubility kinetic [5] [µM]	Papp [7] [×10⁻⁶ cm/s]	further results
O=C(NO)c1cccc2c1CN(c1nc3ccccc3s1)C2	35	323	–	–	–	–
CC1(C)c2cccc(C(=O)NO)c2CN1c1cnc(C(F)(F)F)cn1	–	22	> 10000	31 (≈ 10.9 µg/mL)	13	IC50 (Histone deacetylase 1): > 10000 nM; IC50 (Histone deacetylase 5): > 10000 nM; IC50 [6]: > 10000 nM; IC50 (Histone deacetylase 7): > 10000 nM; IC50 (Histone deacetylase 3): > 10000 nM; IC50 (Histone deacetylase 2): > 10000 nM; IC50 (Histone deacetylase 9): > 10000 nM
O=C(NO)c1cccc2c1CCN(c1nc3ccccc3[nH]1)C2	1200	< 7	> 10000	–	–	–
CC1(C)c2cccc(C(=O)NO)c2CN1c1nc2ccc(C(F)(F)F)cc2[nH]1	2	12	–	51 (≈ 19.9 µg/mL)	0.1	–
Cc1nc(N2Cc3cccc(C(=O)NO)c3C2)[nH]c1C	2300	88	–	–	–	–
CC1(C)c2cccc(C(=O)NO)c2CN1c1ncc(C(F)(F)F)cn1	5	21	–	32 (≈ 11.3 µg/mL)	18	IC50 (Histone deacetylase 11 [4]): 85 nM
O=C(NO)c1ccc2c(c1)CCN(c1nc3ccccc3[nH]1)C2	> 10000	–	2	–	–	–
CC1(C)c2cccc(C(=O)NO)c2CN1c1ccc(C(F)(F)F)cn1	6	28	–	8 (≈ 2.81 µg/mL)	12	IC50 (Histone deacetylase 11 [4]): 130 nM
O=C(NO)c1cccc2c1CN(c1ccc3ccccc3n1)C2	26	92	–	–	–	–
O=C(NO)c1cccc2c1CN(c1nc3ccccc3o1)C2	7	313	–	–	–	–

The remaining molecules from weak to strong by IC50 (Histone deacetylase 11 [1]), led by results:

IC50 (Histone deacetylase 11 [1]) [nM]	microsomal CLint [2] [µL/min/mg]	IC50 [3] [nM]	solubility kinetic [5] [µM]	Papp [7] [×10⁻⁶ cm/s]	SMILES	further results
4600	–	82	–	–	O=C(NO)c1cccc2c1CN(c1nc3ccccc3[nH]1)CC2	–
2100	–	4	–	–	O=C(NO)c1ccc2c(c1)CN(c1nc3ccccc3[nH]1)CC2	AUC(0-t) [12]: 1 µM·h; clearance [13]: 42 mL/min/kg; C0 [14]: 3.5 µM; Vd [15]: 18 L/kg; half-life [16]: 9.4 h
300	317	–	–	–	O=C(NO)c1cccc2c1CN(C1=NC3CCCCC3N1)C2 (stereo unspecified)	–
170	17	> 10000	–	–	O=C(NO)c1cccc2c1CN(c1nc3ccccc3[nH]1)C2	bioavailability [8]: 81%; half-life [9]: 10.2 h; AUC(0-t) [10]: 3.8 µM·h; Cmax [11]: 4.2 µM
30	161	2800	–	–	O=C(NO)c1cccc2c1CCN(c1nc3ccccc3[nH]1)CC2	–
27	7	–	82 (≈ 28.9 µg/mL)	–	CC1(C)c2cccc(C(=O)NO)c2CN1c1cnc(C(F)(F)F)nc1	IC50 (Histone deacetylase 11 [4]): 270 nM
7	81	–	–	–	O=C(NO)c1cccc2c1CN(c1ccc(C(F)(F)F)cn1)C2	–
3	12	–	51 (≈ 17.9 µg/mL)	8	CC1(C)c2cccc(C(=O)NO)c2CN1c1ccc(C(F)(F)F)nc1	IC50 (Histone deacetylase 11 [4]): 12 nM
2	140	–	–	–	O=C(NO)c1cccc2c1CN(c1nc3ccc(C(F)(F)F)cc3[nH]1)C2	–
2	7	–	78 (≈ 25.3 µg/mL)	0.7	CC1(C)c2cccc(C(=O)NO)c2CN1c1nc2ncccc2o1	IC50 (Histone deacetylase 11 [4]): 20 nM
1	10	–	4 (≈ 1.57 µg/mL)	7	CC1(C)c2cccc(C(=O)NO)c2CN1c1nc2cc(C(F)(F)F)ccc2o1	–
